Test results published in patent US20220315934A1, “HETEROLOGOUS RIBOSOME GENERATION, […] COMPOSITIONS THEREOF” (priority 2019, published 2022).

Legend:
Format in all cases: cell-based
E. coli strain S4246 = assay: Antibiotic sensitivity/resistance of erythromycin-resistant strain S4246
Procedure: The erythromycin-resistant strain S4246 was generated using conventional recombineering (76, 77). Briefly, chemically competent S2060 cells were transformed with pKD46 (77) and plated on 2×YT agar plates supplemented with 50 μg mL^−1 carbencillin at 30° C. A single colony was picked, grown at 30° C. in 2×YT liquid medium supplemented with 50 μg mL^−1 carbencillin and 10 mM arabinose, and made chemically competent when the culture reached the appropriate OD600. Chemically competent S2060/pKD46 cells were transformed with the phosphothiorated recombineering oligonucleotide AB5708 (5′-C*T*C*A*[…] CCGCG […]-3′, SEQ ID NO: 403; phosphothirate bonds indicated as *, introduced mutation is bolded) to introduce the rrlA-H A2058U mutation on replichore 2 (76). Following recovery for 3 hours at 30° C., transformed cells were plated on 2×YT agar plates supplemented with 1000 μg mL^−1 erythromycin and incubated at 37° C. to cure the resident pKD46 plasmid. Following overnight growth, single colonies were picked into 2×YT liquid medium supplemented with 50 μg mL^−1 streptomycin, 10 μg mL^−1 tetracycline and 1000 μg mL^−1 erythromycin and allowed to grow overnight at 37° C. To assess the degree of rrlA-H mutagenesis, cultures were used as PCR templates using primers AB5710 (5′-[…]-3′, SEQ ID NO: 404) and AB5711 (5′-[…]-3′, SEQ ID NO: 405), and the PCR products were treated with the endonuclease HpyCH4III (New England Biolabs) according to the manufacturer's guidelines. Wildtype rrlA-H genotypes show no digestion under these conditions, whereas complete conversion results in complete PCR product digestion. Intermediate (incomplete) digestion indicated in incomplete conversion of all seven genomic alleles. The completely converted strain S4246 was confirmed to be sensitive to the following antibiotics (ensures no resistance crosstalk with plasmid-borne markers): carbenicillin (50 μg mL^−1), spectinomycin (100 μg mL^−1), chloramphenicol (40 μg mL^−1), and kanamycin (30 μg mL^−1). The strain was confirmed to be resistant to the following antibiotics: streptomycin (50 μg mL^−1), tetracycline (10 μg mL^−1), and erythromcyin (1000 μg mL^−1).

heterologous ribosomes = assay: Erythromycin-dependent orthogonal sfGFP reporter in S4246, heterologous ribosomes
From the text: (§1) To assess the degree of association between E. coli LSUs and heterologous SSUs, an erythromycin-dependent reporter was developed to distinguish between genome- (E. coli; erythromycin-resistant) and episome-derived (heterologous; erythromycin-sensitive) LSUs. The erythromycin-resistant strain S4246 was developed, wherein all seven genomic 23S genes (rrlA-H) of 52060 cells were mutated (A2058U) (75) to mitigate macrolide binding in the ribosomal exit tunnel (FIG. 18A) (76, 77). rrlA-H A2058U sequences are presented in Table 1.
(§2) Next, the ErmC leader peptide, ermCL, was introduced ahead of the orthogonal sfGFP reporter, ensuring that reporter translation would be abrogated via erythromycin- and ermCL-dependent translational stalling (78) (FIG. 18B).
This analysis was next extended to a set of 20 functional heterologous ribosomes.

[1] = tested on: episome-derived E. coli orthogonal ribosome LSUs; assay: Erythromycin-dependent (ermCL) orthogonal sfGFP reporter in S4246, E. coli orthogonal ribosomes
From the text: as §1, §2
To validate this sensor, the erythromycin sensitivity of an episome-derived E. coli orthogonal ribosome encoding or lacking the identical A2058U mutation was assessed. A recently described stapled E. coli ribosome (d2d8) (7) that preferentially uses a covalently linked 23S rRNA, with or without the identical mutation was used as a control.

[2] = heterologous ribosomes bearing intermediate homology (92.9-97.0%)

CN[C@@H]1[C@H](O)[C@H](NC)[C@H]2O[C@@]3(O)C(=O)C[C@@H](C)O[C@H]3O[C@@H]2[C@H]1O [spectinomycin]
sensitivity of strain S4246 (E. coli strain S4246; spectinomycin 100 μg mL^−1): sensitive

[H]/N=C(/N)N[C@H]1[C@H](O)[C@@H](O)[C@H](O[C@@H]2O[C@@H](C)[C@](O)(C=O)[C@H]2O[C@@H]2O[C@@H](CO)[C@H](O)[C@@H](O)[C@@H]2NC)[C@@H](N/C(N)=N\[H])[C@@H]1O [streptomycin]
resistance of strain S4246 (E. coli strain S4246; streptomycin 50 μg mL^−1): resistant

CC[C@H]1OC(=O)[C@H](C)[C@@H](O[C@H]2C[C@@](C)(OC)[C@@H](O)[C@H](C)O2)[C@H](C)[C@@H](O[C@@H]2O[C@H](C)C[C@H](N(C)C)[C@H]2O)[C@](C)(O)C[C@@H](C)C(=O)[C@H](C)[C@@H](O)[C@]1(C)O [erythromycin]
sfGFP signal upon erythromycin treatment (heterologous ribosomes; [2]): extensive reduction | viability upon erythromycin treatment (heterologous ribosomes; [2]): no associated viability defect | sfGFP translation and cell viability upon erythromycin treatment (heterologous ribosomes; heterologous ribosomes with high 16S sequence identity to E. coli (≥99.2%)): dramatic reduction | sfGFP signal upon erythromycin treatment (heterologous ribosomes; more divergent heterologous ribosomes (79.3-90.3%)): decreased minimally | change in orthogonal translation upon erythromycin dosing ([1]; A2058U-LSUs, free and stapled (d2d8)): no appreciable change | change in orthogonal translation upon erythromycin dosing ([1]; unmutated LSUs, dose-dependent): marked reduction | MIC (E. coli strain S4246; Escherichia coli, S4246): > 1000 µg/mL | resistance of strain S4246 (E. coli strain S4246; erythromycin 1000 μg mL^−1): resistant

CC1(C)S[C@@H]2[C@H](NC(=O)C(C(=O)O)c3ccccc3)C(=O)N2[C@H]1C(=O)O (stereo partly drawn) [carbenicillin]
sensitivity of strain S4246 (E. coli strain S4246; carbenicillin 50 μg mL^−1): sensitive

O=C(N[C@H](CO)[C@H](O)c1ccc([N+](=O)[O-])cc1)C(Cl)Cl [chloramphenicol]
sensitivity of strain S4246 (E. coli strain S4246; chloramphenicol 40 μg mL^−1): sensitive
